Data: PMC5592639 (ACS combinatorial science, 2016)

Key:
Format in all cases: cell-based
[1] = system: normal human fibroblasts NHFB; assay: Cytotoxicity against normal human fibroblasts; conditions: Fibroblast
[2] = system: H460TaxR (paclitaxel-resistant human non-small cell lung carcinoma cells); assay: Cytotoxicity against H460TaxR; conditions: H460/TaxR
[3] = system: H460 (human non-small cell lung carcinoma cells); assay: Cytotoxicity against H460; conditions: NCI-H460

CC(=O)O[C@H]1C(=O)[C@@]2(C)[C@H]([C@H](OC(=O)c3ccccc3)[C@]3(O)C[C@H](OC(=O)[C@H](O)[C@@H](NC(=O)c4ccccc4)c4ccccc4)C(C)=C1C3(C)C)[C@]1(OC(C)=O)CO[C@@H]1C[C@@H]2O [PTX, paclitaxel]
EC50 [1]: 50 ± 30 nM | EC50 [2]: 800 ± 400 nM | EC50 [3]: 6 ± 2 nM
